Assays:
Assay type in all cases: in vivo
Conditions in all cases: 250 g/ha unless otherwise stated, evaluated after 13 days, five-point scale
Lolium perenne (LOLPE) [1] = assay: Test 1 glasshouse herbicide test, pre-emergence application (Table B2)
Procedure, shortened: (§1)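 Score is % phytotoxicity after 13 days, binned 1 (0–20%) to 5 (81–100%). Compound given at 250 g/ha unless stated, as acetone/water (50:50) spray with 0.5% Tween 20, one day post-sowing (pre-emergence) or after 8 days' growth (post-emergence); glasshouse at 24/16 °C day/night, 14 h light, 65% humidity.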

Solanum nigrum (SOLNI) [2] = assay: as above
Procedure, shortened: as §1

[3] = test system: Amaranthus retoflexus (AMARE); assay: as above
Procedure, shortened: as §1

[4] = test system: Echinochloa crus-galli (ECHCG); assay: as above
Procedure, shortened: as §1

[5] = test system: Ipomoea hederacea (IPOHE); assay: as above
Procedure, shortened: as §1

Setaria faberi (SETFA) [6] = assay: as above
Procedure, shortened: as §1

Lolium perenne (LOLPE) [7] = assay: Test 1 glasshouse herbicide test, post-emergence application (Table B1)
Procedure, shortened: as §1

Solanum nigrum (SOLNI) [8] = assay: as above
Procedure, shortened: as §1

[9] = test system: Amaranthus retoflexus (AMARE); assay: as above
Procedure, shortened: as §1

[10] = test system: Echinochloa crus-galli (ECHCG); assay: as above
Procedure, shortened: as §1

[11] = test system: Ipomoea hederacea (IPOHE); assay: as above
Procedure, shortened: as §1

Setaria faberi (SETFA) [12] = assay: as above
Procedure, shortened: as §1

Row | Structure (SMILES) | % phytotoxicity LOLPE, pre-emergence application (Lolium perenne (LOLPE) [1]) | % phytotoxicity SOLNI, pre-emergence application (Solanum nigrum (SOLNI) [2]) | % phytotoxicity AMARE, pre-emergence application [3] | % phytotoxicity ECHCG, pre-emergence application [4] | % phytotoxicity IPOHE, pre-emergence application [5] | % phytotoxicity SETFA, pre-emergence application (Setaria faberi (SETFA) [6]) | % phytotoxicity LOLPE, post-emergence application (Lolium perenne (LOLPE) [7]) | % phytotoxicity SOLNI, post-emergence application (Solanum nigrum (SOLNI) [8]) | % phytotoxicity AMARE, post-emergence application [9] | % phytotoxicity ECHCG, post-emergence application [10] | % phytotoxicity IPOHE, post-emergence application [11] | % phytotoxicity SETFA, post-emergence application (Setaria faberi (SETFA) [12])
1 | FC(F)(F)CCSc1ccccc1Oc1ncc(Cl)cn1 [Compound A1] | 3 (3=41 to 60%) | 4 (4=61 to 80%) | 5 (5=81 to 100%) | 4 (4=61 to 80%) | 3 (3=41 to 60%) | 5 (5=81 to 100%) | – | – | – | – | – | –
2 | [O-][S+](CCC(F)(F)F)c1ccccc1Oc1ncc(Cl)cn1 (stereo not drawn) [Compound A2] | 3 (3=41 to 60%) | 5 (5=81 to 100%) | 5 (5=81 to 100%) | 5 (5=81 to 100%) | 2 (2=21 to 40%) | 5 (5=81 to 100%) | 4 (4=61 to 80%) | 5 (5=81 to 100%) | 5 (5=81 to 100%) | 4 (4=61 to 80%) | 4 (4=61 to 80%) | 4 (4=61 to 80%)
3 | O=S(=O)(CCC(F)(F)F)c1ccccc1Oc1ncc(Cl)cn1 [Compound A3] | 4 (4=61 to 80%) | 4 (4=61 to 80%) | 5 (5=81 to 100%) | 5 (5=81 to 100%) | 3 (3=41 to 60%) | 5 (5=81 to 100%) | 4 (4=61 to 80%) | 5 (5=81 to 100%) | 5 (5=81 to 100%) | 4 (4=61 to 80%) | 3 (3=41 to 60%) | 4 (4=61 to 80%)
4 | FC(F)(F)CCCSc1ccccc1Oc1ncc(Cl)cn1 [Compound A4, 5-chloro-2-[2-(4,4,4-trifluorobutylsulfanyl)phenoxy] pyrimidine] | 4 (4=61 to 80%) | 4 (4=61 to 80%) | 5 (5=81 to 100%) | 5 (5=81 to 100%) | 3 (3=41 to 60%) | 5 (5=81 to 100%) | 4 (4=61 to 80%) | 5 (5=81 to 100%) | 5 (5=81 to 100%) | 4 (4=61 to 80%) | 4 (4=61 to 80%) | 5 (5=81 to 100%)
5 | [O-][S+](CCCC(F)(F)F)c1ccccc1Oc1ncc(Cl)cn1 (stereo not drawn) [Compound A5] | 5 (5=81 to 100%) | 5 (5=81 to 100%) | 5 (5=81 to 100%) | 5 (5=81 to 100%) | 5 (5=81 to 100%) | 5 (5=81 to 100%) | 5 (5=81 to 100%) | 5 (5=81 to 100%) | 5 (5=81 to 100%) | 5 (5=81 to 100%) | 4 (4=61 to 80%) | 5 (5=81 to 100%)
6 | O=S(=O)(CCCC(F)(F)F)c1ccccc1Oc1ncc(Cl)cn1 [Compound A6] | 2 (2=21 to 40%) | 3 (3=41 to 60%) | 5 (5=81 to 100%) | 4 (4=61 to 80%) | 2 (2=21 to 40%) | 5 (5=81 to 100%) | 2 (2=21 to 40%) | 5 (5=81 to 100%) | 5 (5=81 to 100%) | 3 (3=41 to 60%) | 3 (3=41 to 60%) | 4 (4=61 to 80%)
7 | Fc1cccc(Oc2ncc(Cl)cn2)c1SCCC(F)(F)F [Compound A7] | 4 (4=61 to 80%) | 4 (4=61 to 80%) | 5 (5=81 to 100%) | 5 (5=81 to 100%) | 2 (2=21 to 40%) | 5 (5=81 to 100%) | 2 (2=21 to 40%) | 5 (5=81 to 100%) | 5 (5=81 to 100%) | 4 (4=61 to 80%) | 2 (2=21 to 40%) | 5 (5=81 to 100%)
8 | [O-][S+](CCC(F)(F)F)c1c(F)cccc1Oc1ncc(Cl)cn1 (stereo not drawn) [Compound A8] | 2 (2=21 to 40%) | 4 (4=61 to 80%) | 5 (5=81 to 100%) | 2 (2=21 to 40%) | 2 (2=21 to 40%) | 4 (4=61 to 80%) | 1 (1=0 to 20%) | 4 (4=61 to 80%) | 5 (5=81 to 100%) | 1 (1=0 to 20%) | 2 (2=21 to 40%) | 3 (3=41 to 60%)
9 | O=S(=O)(CCC(F)(F)F)c1c(F)cccc1Oc1ncc(Cl)cn1 [Compound A9] | 4 (4=61 to 80%) | 5 (5=81 to 100%) | 5 (5=81 to 100%) | 4 (4=61 to 80%) | 4 (4=61 to 80%) | 5 (5=81 to 100%) | 3 (3=41 to 60%) | 5 (5=81 to 100%) | 5 (5=81 to 100%) | 3 (3=41 to 60%) | 3 (3=41 to 60%) | 4 (4=61 to 80%)
10 | FC(F)(F)CCSc1c(Cl)cccc1Oc1ncc(Cl)cn1 [Compound A10, 5-chloro-2-[3-chloro-2-(3,3,3-trifluoropropylsulfanyl)phenoxy]pyrimidine] | 4 (4=61 to 80%) | 4 (4=61 to 80%) | 5 (5=81 to 100%) | 5 (5=81 to 100%) | 3 (3=41 to 60%) | 5 (5=81 to 100%) | 5 (5=81 to 100%) | 5 (5=81 to 100%) | 5 (5=81 to 100%) | 5 (5=81 to 100%) | 4 (4=61 to 80%) | 5 (5=81 to 100%)
11 | [O-][S+](CCC(F)(F)F)c1c(Cl)cccc1Oc1ncc(Cl)cn1 (stereo not drawn) [Compound A11] | 5 (5=81 to 100%) | 5 (5=81 to 100%) | 5 (5=81 to 100%) | 5 (5=81 to 100%) | 5 (5=81 to 100%) | 5 (5=81 to 100%) | 4 (4=61 to 80%) | 5 (5=81 to 100%) | 5 (5=81 to 100%) | 5 (5=81 to 100%) | 5 (5=81 to 100%) | 5 (5=81 to 100%)
12 | O=S(=O)(CCC(F)(F)F)c1c(Cl)cccc1Oc1ncc(Cl)cn1 [Compound A12] | 5 (5=81 to 100%) | 5 (5=81 to 100%) | 5 (5=81 to 100%) | 5 (5=81 to 100%) | 5 (5=81 to 100%) | 5 (5=81 to 100%) | 5 (5=81 to 100%) | 5 (5=81 to 100%) | 5 (5=81 to 100%) | 5 (5=81 to 100%) | 4 (4=61 to 80%) | 5 (5=81 to 100%)

Source: patent US20220324815A1, “2-PHENOXY-PYRIMIDINE DERIVATIVES AS HERBICIDAL COMPOUNDS” (SYNGENTA CROP PROTECTION AG, priority 2019, published 2022)
